Measured values from PubChem BioAssay (NCI).
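Values below derive from 48-hour exposures of cells grown in 96-well plates, with endpoints linearly interpolated between the two concentrations bracketing the appropriate inhibition level. TGI: concentration producing complete growth inhibition.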

How the values were obtained:
Test in all cases: DTP human tumour cell line panel, 48 h
ACHN renal = test system: ACHN renal
MDA-MB-231 breast = test system: MDA-MB-231 breast
MDA-MB-435 = test system: MDA-MB-435
MDA-N = test system: MDA-N
PC-3 prostate = test system: PC-3 prostate
HCC-2998 colon = test system: HCC-2998 colon
HCT-15 colon = test system: HCT-15 colon
T-47D breast = test system: T-47D breast
A498 renal = test system: A498 renal
NCI-H226 lung = test system: NCI-H226 lung
CAKI-1 renal = test system: CAKI-1 renal
M19-MEL melanoma = test system: M19-MEL melanoma
UACC-257 melanoma = test system: UACC-257 melanoma
NCI-H460 lung = test system: NCI-H460 lung
XF 498 CNS = test system: XF 498 CNS
NCI-H522 lung = test system: NCI-H522 lung
U251 CNS = test system: U251 CNS
SF-295 CNS = test system: SF-295 CNS
LXFL 529 NSCLC = test system: LXFL 529 NSCLC
DLD-1 colon = test system: DLD-1 colon

Measured: TGI

O=c1c2cccnc2oc2c(Cl)cc(-c3nn[nH]n3)cc12
> 100 µM: ACHN renal | MDA-MB-231 breast | MDA-MB-435 | MDA-N | PC-3 prostate | HCC-2998 colon | HCT-15 colon | T-47D breast | A498 renal | NCI-H226 lung | CAKI-1 renal

O=C1C(Cl)N(c2ccc([N+](=O)[O-])cc2)C1c1c[nH]c2ccccc12 (stereo not given)
> 100 µM: M19-MEL melanoma | UACC-257 melanoma | NCI-H460 lung | XF 498 CNS | NCI-H522 lung | U251 CNS | SF-295 CNS | LXFL 529 NSCLC | DLD-1 colon
